# Article PMC7259758 (PLoS ONE, 2020)
# pEC50, pIC50: −log10 of the molar value.
# Tests used:
# PYK2 (h) = molecular target: T1, PYK2 (h) (Homo sapiens, UniProt Q14289); assay: Radiometric protein kinase assay (Eurofins); format: biochemical; settings: 40 min; ATP 90 μM; read-out: PYK2 IC50
# T1 construct: purchased Eurofins, Dundee, Scotland
# GSK3β(h) = molecular target: T2, GSK3β(h) (Homo sapiens, UniProt P49841); assay: Radiometric protein kinase assay (Eurofins); format: biochemical; settings: 40 min; ATP 15 μM; read-out: GSK3β(h) IC50
# T2 construct: purchased Eurofins, Dundee, Scotland
# [1] = system: phosphorylation of SR proteins; assay: Western blot of nuclear extracts, phosphor-SR proteins; settings: HCT116 and Rh18 cells, 4 h; SD6 10 μM, compound 1 10 μM, compound 2 5 μM, compound 3 10 μM
# SRPK2 (h) = molecular target: T3, SRPK2 (h) (Homo sapiens, UniProt P78362); assay: Radiometric protein kinase assay (Eurofins); format: biochemical; settings: 40 min; ATP 10 μM; read-out: SRPK2 IC50
# T3 construct: purchased Eurofins, Dundee, Scotland
# Procedure: (§1) Enzymatic biochemical activities were evaluated in radiometric protein kinase assays (Eurofins, Dundee, Scotland). Kinases are incubated with buffer, substrate and [γ-^33P]-ATP (specific activity approx. 500 cpm/pmol, concentration as required). The reaction is initiated by the addition of the MgATP mix. After incubation for 40 minutes at room temperature, the reaction is stopped by the addition of 3% phosphoric acid solution. 10 μL of the reaction is then spotted onto a P30 filtermat and washed three times for 5 minutes in 75 mM phosphoric acid and once in methanol prior to drying and scintillation counting. All compounds are prepared to 50x final assay concentration in 100% DMSO. Positive control wells contain all components of the reaction with 2% DMSO. Blank wells contain all components of the reaction, with a reference inhibitor replacing the compound of interest. Each kinase is assigned a standard assay concentration of ATP within 20 μM of its apparent Km. Compounds were screened at 1 μM in duplicate or tested at 10 concentrations at half log dilution starting from 10 μM in singlicate. Dose response curves were fitted with four parameter logistic curve to obtain IC50 values. […]
# (§2) Staurosporine is used as reference for all tested enzymes except for SRPK3 (reference inhibitor: K-252a. Nocardiopsis sp), NEK2 (reference inhibitor: […]), and CK2, CK2α2, MAPK1, MAPK2 (reference inhibitor: PKR Inhibitor). See Table 1 below for additional details.
# CLK1(h) = molecular target: T4, CLK1(h) (Homo sapiens, UniProt P49759); assay: Radiometric protein kinase assay (Eurofins); format: biochemical; settings: ATP 10 μM
# T4 construct: purchased Eurofins, Dundee, Scotland
# Procedure: as §1, §2
# MAPK2 (h) = molecular target: T5, MAPK2 (h) (Homo sapiens, UniProt P28482); assay: Radiometric protein kinase assay (Eurofins); format: biochemical; settings: 40 min; ATP 155 μM; read-out: MAPK2 IC50
# T5 construct: purchased Eurofins, Dundee, Scotland
# Procedure: as §1, §2
# CK2α2 (h) = molecular target: T6, CK2α2 (h) (Homo sapiens, UniProt P19784); assay: Radiometric protein kinase assay (Eurofins); format: biochemical; settings: 40 min; ATP 10 μM; read-out: CK2a2 IC50
# T6 construct: purchased Eurofins, Dundee, Scotland
# Procedure: as §1, §2
# DYRK1B (h) = molecular target: T7, DYRK1B (h) (Homo sapiens, UniProt Q9Y463); assay: Radiometric protein kinase assay (Eurofins); format: biochemical; settings: ATP 45 μM
# T7 construct: purchased Eurofins, Dundee, Scotland
# Procedure: as §1, §2
# AKT3 = molecular target: T8, AKT3 (Homo sapiens, UniProt Q9Y243); assay: Radiometric protein kinase assay (Eurofins); format: biochemical; settings: ATP 45 μM
# T8 construct: purchased Eurofins, Dundee, Scotland
# Procedure: as §1, §2
# MAPK1 (h) = molecular target: T9, MAPK1 (h) (Homo sapiens, UniProt P27361); assay: Radiometric protein kinase assay (Eurofins); format: biochemical; settings: 40 min; read-out: MAPK1 IC50
# T9 construct: purchased Eurofins, Dundee, Scotland
# Procedure: as §1, §2
# CLK3(h) = molecular target: T10, CLK3(h) (Homo sapiens, UniProt P49761); assay: Radiometric protein kinase assay (Eurofins); format: biochemical; settings: ATP 90 μM
# T10 construct: purchased Eurofins, Dundee, Scotland
# Procedure: as §1, §2
# SRPK3 (h) = molecular target: T11, SRPK3 (h) (Homo sapiens, UniProt Q9UPE1); assay: Radiometric protein kinase assay (Eurofins); format: biochemical; settings: ATP 15 μM
# T11 construct: purchased Eurofins, Dundee, Scotland
# Procedure: as §1, §2
# CLK4(h) = molecular target: T12, CLK4(h) (Homo sapiens, UniProt Q9HAZ1); assay: Radiometric protein kinase assay (Eurofins); format: biochemical; settings: ATP 10 μM
# T12 construct: purchased Eurofins, Dundee, Scotland
# Procedure: as §1, §2
# DYRK1A(h) = molecular target: T13, DYRK1A(h) (Homo sapiens, UniProt Q13627); assay: Radiometric protein kinase assay (Eurofins); format: biochemical; settings: ATP 45 μM
# T13 construct: purchased Eurofins, Dundee, Scotland
# Procedure: as §1, §2
# DYRK2 (h) = molecular target: T14, DYRK2 (h) (Homo sapiens, UniProt Q92630); assay: Radiometric protein kinase assay (Eurofins); format: biochemical; settings: ATP 15 μM
# T14 construct: purchased Eurofins, Dundee, Scotland
# T14 sequence (Q92630 1-601): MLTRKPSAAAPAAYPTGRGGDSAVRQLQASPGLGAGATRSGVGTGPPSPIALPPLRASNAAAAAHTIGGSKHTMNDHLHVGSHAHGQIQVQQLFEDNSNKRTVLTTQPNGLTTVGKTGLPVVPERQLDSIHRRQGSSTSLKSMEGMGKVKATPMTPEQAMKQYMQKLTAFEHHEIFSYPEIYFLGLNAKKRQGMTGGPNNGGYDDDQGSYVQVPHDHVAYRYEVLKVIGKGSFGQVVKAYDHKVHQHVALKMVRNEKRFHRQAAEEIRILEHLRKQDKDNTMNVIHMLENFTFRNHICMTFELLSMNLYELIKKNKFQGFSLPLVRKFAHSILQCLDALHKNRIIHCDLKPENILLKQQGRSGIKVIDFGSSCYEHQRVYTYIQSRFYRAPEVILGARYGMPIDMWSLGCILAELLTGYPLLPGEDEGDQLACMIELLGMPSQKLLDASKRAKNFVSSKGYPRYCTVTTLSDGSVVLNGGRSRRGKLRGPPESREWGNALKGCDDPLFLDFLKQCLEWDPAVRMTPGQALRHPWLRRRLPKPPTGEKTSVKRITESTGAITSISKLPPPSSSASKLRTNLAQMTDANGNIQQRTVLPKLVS
# Procedure: as §1, §2
# CK2 (h) = molecular target: T15, CK2 (h) (Homo sapiens, UniProt P68400); assay: Radiometric protein kinase assay (Eurofins); format: biochemical; settings: 40 min; ATP 10 μM; read-out: CK2 IC50
# T15 construct: purchased Eurofins, Dundee, Scotland
# Procedure: as §1, §2
# phosphorylation of SF3B1 = assay: Western blot of nuclear extracts, phosphor-SF3B1; settings: HCT116 and Rh18 cells, 4 h; SD6 10 μM, compound 1 10 μM, compound 2 5 μM
# FAK (h) = molecular target: T16, FAK (h) (Homo sapiens, UniProt Q05397); assay: Radiometric protein kinase assay (Eurofins); format: biochemical; settings: 40 min; ATP 70 μM; read-out: FAK IC50
# T16 construct: purchased Eurofins, Dundee, Scotland
# [2] = system: triple-exon skipping of MDM2 pre-mRNA in SK-MEL-2/Luc-MDM2 cells; assay: TESLR (Triple Exon Skipping Luciferase Reporter) dose response; settings: Homo sapiens, SK-MEL-2, 4 h, read-out: TESLR EC50
# CLK2(h) = molecular target: T17, CLK2(h) (Homo sapiens, UniProt P49760); assay: Radiometric protein kinase assay (Eurofins); format: biochemical; settings: ATP 10 μM
# T17 construct: purchased Eurofins, Dundee, Scotland
# T4 sequence (P49759 whole entry): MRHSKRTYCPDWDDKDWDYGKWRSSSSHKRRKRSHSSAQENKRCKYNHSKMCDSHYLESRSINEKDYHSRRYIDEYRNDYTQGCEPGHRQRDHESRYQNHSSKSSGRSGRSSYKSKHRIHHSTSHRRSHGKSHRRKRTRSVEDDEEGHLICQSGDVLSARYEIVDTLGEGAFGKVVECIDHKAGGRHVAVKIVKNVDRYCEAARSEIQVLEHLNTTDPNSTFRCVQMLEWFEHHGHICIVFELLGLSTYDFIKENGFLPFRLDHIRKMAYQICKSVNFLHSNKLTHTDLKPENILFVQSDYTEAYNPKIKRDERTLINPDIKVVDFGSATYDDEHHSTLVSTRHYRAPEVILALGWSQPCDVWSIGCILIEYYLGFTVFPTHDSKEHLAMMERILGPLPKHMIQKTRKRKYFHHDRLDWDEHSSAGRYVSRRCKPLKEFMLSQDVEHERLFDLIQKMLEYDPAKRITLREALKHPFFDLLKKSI
# T8 sequence (Q9Y243 whole entry): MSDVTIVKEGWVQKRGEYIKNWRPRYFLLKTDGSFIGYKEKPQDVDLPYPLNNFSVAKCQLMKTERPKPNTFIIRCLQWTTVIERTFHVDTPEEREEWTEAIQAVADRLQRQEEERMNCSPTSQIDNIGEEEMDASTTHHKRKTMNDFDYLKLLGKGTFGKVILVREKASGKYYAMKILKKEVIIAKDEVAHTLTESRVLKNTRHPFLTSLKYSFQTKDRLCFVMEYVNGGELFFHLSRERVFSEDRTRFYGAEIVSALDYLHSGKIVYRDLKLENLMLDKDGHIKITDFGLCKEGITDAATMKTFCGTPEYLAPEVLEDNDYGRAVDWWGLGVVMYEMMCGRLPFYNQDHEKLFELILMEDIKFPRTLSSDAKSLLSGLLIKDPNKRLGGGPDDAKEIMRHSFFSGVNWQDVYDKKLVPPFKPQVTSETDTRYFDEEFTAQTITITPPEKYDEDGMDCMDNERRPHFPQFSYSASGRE
# T12 sequence (Q9HAZ1 whole entry): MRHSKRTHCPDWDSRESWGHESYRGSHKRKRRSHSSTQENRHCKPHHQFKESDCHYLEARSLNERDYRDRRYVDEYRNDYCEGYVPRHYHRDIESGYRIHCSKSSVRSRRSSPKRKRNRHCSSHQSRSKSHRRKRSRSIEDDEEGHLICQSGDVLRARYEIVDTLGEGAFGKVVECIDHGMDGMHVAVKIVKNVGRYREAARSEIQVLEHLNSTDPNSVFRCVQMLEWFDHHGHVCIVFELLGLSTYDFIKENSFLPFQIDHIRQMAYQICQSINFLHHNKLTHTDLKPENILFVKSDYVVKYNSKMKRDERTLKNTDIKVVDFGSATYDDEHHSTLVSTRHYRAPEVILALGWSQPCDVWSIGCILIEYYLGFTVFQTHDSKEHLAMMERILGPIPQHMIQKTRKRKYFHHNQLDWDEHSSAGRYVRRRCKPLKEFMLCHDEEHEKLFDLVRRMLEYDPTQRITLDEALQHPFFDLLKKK
# T11 sequence (Q9UPE1 whole entry): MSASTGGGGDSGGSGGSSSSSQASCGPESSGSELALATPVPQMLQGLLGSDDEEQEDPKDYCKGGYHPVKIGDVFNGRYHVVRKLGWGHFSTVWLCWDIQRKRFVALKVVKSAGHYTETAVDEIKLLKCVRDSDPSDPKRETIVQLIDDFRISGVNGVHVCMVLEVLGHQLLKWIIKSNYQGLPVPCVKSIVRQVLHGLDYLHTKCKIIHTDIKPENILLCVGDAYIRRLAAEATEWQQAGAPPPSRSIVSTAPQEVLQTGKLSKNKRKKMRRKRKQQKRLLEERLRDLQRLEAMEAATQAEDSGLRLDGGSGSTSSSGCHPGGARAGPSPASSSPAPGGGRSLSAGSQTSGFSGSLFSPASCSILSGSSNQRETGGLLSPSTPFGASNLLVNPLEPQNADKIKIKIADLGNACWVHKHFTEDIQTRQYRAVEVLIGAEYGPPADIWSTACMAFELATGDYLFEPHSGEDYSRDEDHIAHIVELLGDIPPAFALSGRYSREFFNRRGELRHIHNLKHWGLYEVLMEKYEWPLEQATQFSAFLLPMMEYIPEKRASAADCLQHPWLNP
# T6 sequence (P19784 whole entry): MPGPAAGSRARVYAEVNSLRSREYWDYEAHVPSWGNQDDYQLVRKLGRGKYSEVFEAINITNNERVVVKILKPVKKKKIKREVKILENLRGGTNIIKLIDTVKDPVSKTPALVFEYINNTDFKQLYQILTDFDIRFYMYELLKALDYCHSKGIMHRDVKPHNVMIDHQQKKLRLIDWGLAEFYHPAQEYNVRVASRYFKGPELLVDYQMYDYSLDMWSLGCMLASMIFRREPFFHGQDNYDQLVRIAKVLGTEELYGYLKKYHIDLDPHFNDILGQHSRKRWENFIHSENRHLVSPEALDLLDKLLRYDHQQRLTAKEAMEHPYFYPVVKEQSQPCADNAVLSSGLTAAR
# T5 sequence (P28482 whole entry): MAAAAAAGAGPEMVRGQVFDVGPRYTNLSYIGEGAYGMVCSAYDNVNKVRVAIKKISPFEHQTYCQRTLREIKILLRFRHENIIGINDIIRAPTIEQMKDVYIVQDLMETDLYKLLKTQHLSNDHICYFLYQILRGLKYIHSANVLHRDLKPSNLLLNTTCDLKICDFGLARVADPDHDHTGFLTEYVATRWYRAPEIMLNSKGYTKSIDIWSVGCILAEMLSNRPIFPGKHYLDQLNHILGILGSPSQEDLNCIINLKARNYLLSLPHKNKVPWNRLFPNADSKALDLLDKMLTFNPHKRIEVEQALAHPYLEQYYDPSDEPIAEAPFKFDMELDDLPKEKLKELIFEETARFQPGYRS
# T9 sequence (P27361 whole entry): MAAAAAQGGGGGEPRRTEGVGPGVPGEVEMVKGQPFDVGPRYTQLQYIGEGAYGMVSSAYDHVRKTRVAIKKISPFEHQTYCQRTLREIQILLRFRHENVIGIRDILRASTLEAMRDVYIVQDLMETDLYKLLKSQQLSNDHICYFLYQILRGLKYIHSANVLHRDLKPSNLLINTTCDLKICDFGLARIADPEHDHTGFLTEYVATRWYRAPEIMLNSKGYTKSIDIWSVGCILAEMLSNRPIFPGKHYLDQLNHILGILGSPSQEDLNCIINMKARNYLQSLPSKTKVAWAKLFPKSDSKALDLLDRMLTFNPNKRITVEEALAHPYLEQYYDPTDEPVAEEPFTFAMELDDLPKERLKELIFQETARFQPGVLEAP
# T7 sequence (Q9Y463 whole entry): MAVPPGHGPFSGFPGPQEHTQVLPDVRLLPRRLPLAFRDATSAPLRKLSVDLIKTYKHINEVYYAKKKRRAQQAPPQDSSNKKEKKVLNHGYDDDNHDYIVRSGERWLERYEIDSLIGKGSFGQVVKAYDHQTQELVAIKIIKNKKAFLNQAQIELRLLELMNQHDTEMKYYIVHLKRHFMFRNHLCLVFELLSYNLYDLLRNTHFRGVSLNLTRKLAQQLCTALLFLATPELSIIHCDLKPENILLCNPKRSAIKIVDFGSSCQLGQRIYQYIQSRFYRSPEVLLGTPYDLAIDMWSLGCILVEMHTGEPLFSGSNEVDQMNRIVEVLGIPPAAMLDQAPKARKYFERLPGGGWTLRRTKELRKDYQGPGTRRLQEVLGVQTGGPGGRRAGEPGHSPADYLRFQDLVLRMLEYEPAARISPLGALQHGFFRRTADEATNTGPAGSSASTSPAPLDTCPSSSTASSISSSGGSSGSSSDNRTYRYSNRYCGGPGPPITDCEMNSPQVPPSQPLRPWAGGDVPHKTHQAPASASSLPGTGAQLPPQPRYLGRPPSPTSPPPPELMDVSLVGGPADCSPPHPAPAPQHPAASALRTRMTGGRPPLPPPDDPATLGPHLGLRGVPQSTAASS
# T15 sequence (P68400 whole entry): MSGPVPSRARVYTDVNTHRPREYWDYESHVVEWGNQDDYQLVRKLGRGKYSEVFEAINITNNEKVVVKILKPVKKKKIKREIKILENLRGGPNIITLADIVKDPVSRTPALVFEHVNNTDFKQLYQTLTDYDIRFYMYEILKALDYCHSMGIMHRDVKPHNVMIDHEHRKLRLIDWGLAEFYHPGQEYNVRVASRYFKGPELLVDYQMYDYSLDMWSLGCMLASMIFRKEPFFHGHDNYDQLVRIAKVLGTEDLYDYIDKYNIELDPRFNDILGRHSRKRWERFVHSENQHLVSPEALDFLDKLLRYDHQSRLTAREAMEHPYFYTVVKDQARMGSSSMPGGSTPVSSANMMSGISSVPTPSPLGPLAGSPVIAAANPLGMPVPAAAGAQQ
# T15 sequence (P67870 whole entry partner): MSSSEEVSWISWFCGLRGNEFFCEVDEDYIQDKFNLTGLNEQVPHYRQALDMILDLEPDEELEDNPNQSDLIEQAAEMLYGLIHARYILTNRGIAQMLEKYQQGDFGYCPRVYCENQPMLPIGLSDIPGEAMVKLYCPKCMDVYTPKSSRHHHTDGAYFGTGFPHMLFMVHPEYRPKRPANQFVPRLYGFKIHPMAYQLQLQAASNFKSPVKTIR
# T2 sequence (P49841 whole entry): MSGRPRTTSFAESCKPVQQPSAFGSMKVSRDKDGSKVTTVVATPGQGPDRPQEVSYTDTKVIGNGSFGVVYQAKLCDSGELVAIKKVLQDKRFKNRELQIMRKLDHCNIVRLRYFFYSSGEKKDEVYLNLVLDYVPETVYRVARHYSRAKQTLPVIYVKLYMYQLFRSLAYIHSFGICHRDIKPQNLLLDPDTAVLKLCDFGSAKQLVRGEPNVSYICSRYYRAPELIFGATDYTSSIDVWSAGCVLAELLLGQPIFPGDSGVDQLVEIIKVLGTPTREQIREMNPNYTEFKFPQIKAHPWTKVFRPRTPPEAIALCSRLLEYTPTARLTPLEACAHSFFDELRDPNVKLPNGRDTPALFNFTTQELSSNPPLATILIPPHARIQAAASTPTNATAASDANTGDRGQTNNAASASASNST
inhibition at 1 µM (PYK2 (h)),inhibition at 1 µM (GSK3β(h)),inhibition at 1 µM (SRPK2 (h)),pIC50 (CLK1(h)),inhibition at 1 µM (MAPK2 (h)),inhibition at 1 µM (CK2α2 (h)),inhibition at 1 µM (MAPK1 (h)),pIC50 (CLK3(h)),pIC50 (CLK4(h)),inhibition at 1 µM (CK2 (h)),inhibition at 1 µM (FAK (h)),pEC50 [2],pIC50 (CLK2(h)),Structure (SMILES),Effect on phosphorylation of SR proteins (immunoblot) [1],Effect on phosphorylation of SF3B1 (immunoblot) (phosphorylation of SF3B1),also measured
< 50%,< 50%,< 50%,8.52,< 50%,< 50%,< 50%,6.37,7.89,< 50%,< 50%,5.04,9.00,"CNC(=O)c1nn(C)c2c1C(C)(C)Cc1cnc(Nc3ccc(N4CCN(C)CC4)cc3)nc1-2 [Compound 1, milciclib]",reduced phosphorylation of both SR and SF3B1 proteins significantly,reduced phosphorylation of both SR and SF3B1 proteins significantly,"pIC50 (DYRK1B (h)): 8.30; inhibition at 1 µM (AKT3; 40 min, read-out: AKT3 IC50): < 50%; inhibition at 1 µM (SRPK3 (h); 40 min, read-out: SRPK3 IC50): < 50%; pIC50 (DYRK1A(h)): 7.77; pIC50 (DYRK2 (h)): 7.32"
< 50%,< 50%,< 50%,7.57,< 50%,< 50%,< 50%,6.31,7.32,< 50%,< 50%,5.46,8.22,"Cc1nc(Nc2[nH]nc3c2CN(C(=O)N[C@H](CN(C)C)c2ccccc2)C3(C)C)c2sccc2n1 [Compound 2, PF-3758309]",reduced phosphorylation of both SR and SF3B1 proteins significantly,reduced phosphorylation of both SR and SF3B1 proteins significantly,"inhibition at 1 µM (DYRK1B (h); 40 min, read-out: DYRK1B IC50): < 50%; pIC50 (AKT3): 7.27; pIC50 (SRPK3 (h)): 6.72; inhibition at 1 µM (DYRK1A(h); 40 min, read-out: DYRK1A IC50): < 50%; inhibition at 1 µM (DYRK2 (h); 40 min, read-out: DYRK2 IC50): < 50%"
